Measured values reported in patent publication US7410995B1, “N-linked sulfonamide of heterocyclic thioesters for vision and memory disorders” (GPI Nil Holdings Inc., priority 1998, dated 2008).
pKi: −log10 of the molar value. Entries after “also recorded” stand apart in the source; their conditions may differ.

Columns and labels:
[1] = tested on: retinal ganglion cell axons; experiment: Protection of retinal ganglion cell axons from degeneration following optic nerve transection (Table V); assay type: in vivo; settings: ± SEM
From the text: Efficacy of representative compounds from different immunophilin ligand series in protecting retinal ganglion cell axons from degeneration following optic nerve transection is set forth in Table V.

[2] = molecular target: FKBP12 (Homo sapiens, UniProt P62942); experiment: Ki test procedure: inhibition of peptidyl-prolyl isomerase (rotamase) activity, chymotrypsin-coupled assay; assay type: biochemical; settings: Table V comments; read-out: Ki rotomase
From the text: The inhibition of the prolyl peptidyl cis-trans isomerase activity of FKBP may be measured as an indicator of this affinity. Inhibition of the peptidyl-prolyl isomerase (rotamase) activity of the compounds used in the inventive methods and pharmaceutical compositions can be evaluated by known methods described in the literature (Harding et al., Nature, 1989, 341:758-760; Holt et al. J. Am. Chem. Soc., 115:9923-9938). […] The inhibition of this reaction caused by the addition of different concentrations of inhibitor is determined, and the data is analyzed as a change in first-order rate constant as a function of inhibitor concentration to yield the apparent Ki values. […] The reaction is initiated by the addition of […] of substrate (succinyl-[…]-nitroanilide, 5 mg/mL in 2.35 mM LiCl in trifluoroethanol). The absorbance at 390 nm versus time is monitored for 90 seconds using a spectrophotometer and the rate constants are determined from the absorbance versus time data files.

[3] = Clearance (Table V comments); assay type: in vitro ADME
[4] = tested on: retinal ganglion cells; experiment: Retinal ischemia: retinal ganglion cell, optic nerve axon and myelin degeneration (FIGS. 1, 2); assay type: in vivo, rats
From the text: Retinal ganglion cells were retrogradely labeled in adult rats by bilateral injection of fluorogold in their lateral geniculate nuclei. Labeled ganglion cells in the normal rat retina appear as white profiles against the dark background (FIG. 1A). Complete retinal ischemia was produced by infusing normal saline solution into the retinal vitreous cavity of each eye until the intraocular pressure exceeded arterial blood pressure. 28 days after the ischemic episode extensive degeneration of retinal ganglion cell was evidenced by massive reduction in the density of fluorogold labeled cells (FIG. 1B). […] FIG. 2. […] Optic nerves from vehicle treated cases examined 28 days after a 1 hour retinal ischemic episode are characterized by a decreased density of optic nerve axons and the appearance of numerous degenerating myelin figures (bright white filled circles). […] FIG. 3. […] Few spared fluorogold pre labeled ganglion cells are present in vehicle treated cases (large white figures) among a population of small microglia that digest the debris of the degenerating cells and take up the fluorogold label (FIG. 3A). […] FIG. 4. […] 90 days after transection few ganglion cell axons remain within the optic nerve (FIG. 4B), representing only 5.6% of the normal population. The loss of axons reflects both the death of retinal ganglion cells and the regression or “dying back” of the axons of ˜70% of the small surviving ganglion cell population into the retina itself (Table 1). […] FIG. 5. […] FIG. 6. […] 90 days after transection extensive degeneration of myelin is evident in vehicle treated cases, characterized by the loss of fascicular organization and the appearance of numerous large dense degenerating myelin figures (FIG. 6B, upper right). […] FIG. 7. FKBP-12 immunohistochemistry labels oligodendroglia (large dark cells with fibrous processes), the cells which produce myelin, located between the fascicles of optic nerve fibers, and also some optic nerve axons. FIG. 8. […]

[5] = tested on: retinal ganglion cells; experiment: Retinal ganglion cell survival and axonal dying back following optic nerve transection (Example 17); assay type: in vivo, Sprague Dawley rats; settings: GPI-1046 10 mg/kg/day s.c. for 28 days
From the text: Transection of the mammalian optic nerve results in a brief period of abortive regeneration, but the majority of axotomized neurons die and the axons from many persisting ganglion cells die back beyond the optic nerve head.

[6] = Peripheral sensory neuropathy in streptozotocin-induced diabetic rat, hot plate and tail flick (Example 18); assay type: in vivo, Wistar rats; settings: lesioned animals treated for 6 weeks at 10 mg/kg s.c.
Protocol: The procedure involved using Male Wistar rats which were given a single injection of streptozotocin (65 mg/kg i.v.). Blood glucose levels were determined weekly for the first three weeks and on the last week of the experiment. Animals were evaluated weekly for signs of sensory neuropathy using the conventional hot plate and tail flick apparatus test procedures.

[7] = Morris watermaze spatial learning and memory in aged rodents (Example 19); assay type: in vivo, C57BL/6N-Nia mice; settings: aged impaired mice, daily 10 mg/kg GPI-1046, retention testing after 3 weeks of dosing; listed as GPT-1046, 10 mg/kg
From the text: In all of these tasks, a proportion of aged rats or mice perform as well as the vast majority of young control animals, while other animals display severe impairments in memory function compared to young animals. […] Specifically, rodent spatial learning and memory decline during aging has been accepted by many investigators as an intriguing correlative animal model of human senile dementia. Cholinergic function in the hippocampus has been extensively studied as a component of spatial learning in rodents, and declining hippocampal cholinergic function has been noted in parallel with the development of learning and memory impairments. […] Also, reports on age-related deficits of hippocampal long-term potentiation (LTP)-induction, a reduction in theta rhythm frequency, a loss of experience-dependent plasticity of hippocampal place-units, and reductions in hippocampal protein kinase C are in keeping with the concept that no single underlying pathology can be identified as the cause of age-related behavioral impairment in rodents. However, the various experimental therapeutic approaches that have been undertaken to improve memory function in aged rodents have been somewhat slanted towards the cholinergic hypothesis. The Morris watermaze is widely used for assessing spatial memory formation and retention in experimental animals. […]

[8] = tested on: retina; experiment: Streptozotocin induced diabetes: retinal neovascularization and neuron loss (FIG. 9); assay type: in vivo
[9] = tested on: retinal ganglion cells and optic nerve axons; experiment: In vivo retinal ganglion cell and optic nerve axon tests after optic nerve transection (Example 6, Table 1); parameters: species or system Sprague Dawley rats; settings: for Proximal optic nerve myelin basic protein Density: SEM, % areal coverage of optic nerve cross section; for increased ON axon density: adjusted for optic nerve diameter; for Distal optic nerve stump shrinkage: cross sectional area compared to sham control; for Distal optic nerve myelin basic protein Density: cross sectional area multiplied by myelin density
From the text: All eyes and optic nerves stumps were removed.

FKBP12, sequence (P62942 whole entry, species assumed): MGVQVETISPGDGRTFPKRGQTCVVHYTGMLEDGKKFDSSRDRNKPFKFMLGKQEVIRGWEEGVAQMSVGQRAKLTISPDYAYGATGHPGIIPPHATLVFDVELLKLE

Molecule: CCC(C)(C)C(=O)C(=O)N1CCCC[C@H]1C(N)=O [H]
- RT 97 RGC axon density 14 days after ON transection [1]: 30.3% ± 8.0% SEM

Molecule: CCC(C)(C)C(=O)C(=O)N1CCC[C@H]1C(=O)SCCC(c1ccccc1)c1ccccc1 [M]
- RT 97 RGC axon density 14 days after ON transection [1]: −6.3% ± 3.9% SEM

Molecule: O=C(SCCCc1ccccc1)[C@@H]1CCCN1C(=O)NC12CCC(CC1)C2 [B]
- pKi [2]: 6.83
- RT 97 RGC axon density 14 days after ON transection [1]: 100.0% ± 5.2% SEM

Molecule: CCC(C)(C)C(=O)C(=O)N1CCCC[C@H]1C(=O)O [G]
- RT 97 RGC axon density 14 days after ON transection [1]: 34.0% ± 4.8% SEM

Molecule: 3-(3-pyridyl)-1-propyl (2s)-1-(3,3-dimethyl-1,2-dioxopentyl)-2-pyrrolidinecarboxylate [GPI 1046]
- pKi [2]: 8.12
- Clearance [3]: 3.5 µL/min
- RT 97 RGC axon density 14 days after ON transection [1]: 60.5% ± 3.9 SEM

Molecule: CCC(C)(C)C(=O)C(=O)N1CCCC[C@H]1C(=O)SCCC(c1ccccc1)c1ccccc1 [Compound K]
- RT 97 RGC axon density 14 days after ON transection [1]: 13.0% ± 4.2% SEM

Molecule: O=C(SCCCc1ccccc1)[C@@H]1CCCN1S(=O)(=O)Cc1ccccc1 [C]
- RT 97 RGC axon density 14 days after ON transection [1]: 60.4% ± 3.1% SEM

Molecule: CCC(C)(C)C(=O)C(=O)N1CCCCC1C(=O)OC(CCc1ccccc1)CCc1ccccc1 (centres unmarked) [E]
- Clearance [3]: 41.8 µL/min

Molecule: CCC(C)(C)C(=O)C(=O)N1CCC[C@H]1C(=O)O [L]
- pKi [2]: < 5.11
- RT 97 RGC axon density 14 days after ON transection [1]: 7.8% ± 3.0% SEM

Molecule: O=C(OCCCc1cccnc1)[C@@H]1CCCN1C(=S)NC1CCCCC1 [I]
- RT 97 RGC axon density 14 days after ON transection [1]: 23.8% ± 5.3% SEM

Molecule: CCC(C)(C)C(=O)C(=O)N1CCC[C@H]1C(=O)CCCCc1cccnc1 [J]
- RT 97 RGC axon density 14 days after ON transection [1]: 15.8% ± 4.8% SEM

Molecule: CCC(C)(C)C(=O)C(=O)N1CCC[C@H]1C(=O)OCCCc1cccnc1 [GPI 1046, 3-(3-pyridyl)-1-propyl (2s)-1-(3,3-dimethyl-1,2-dioxopentyl)-2-pyrrolidinecarboxylate]
- protection of retinal ganglion cells (fluorogold labeled) against degeneration ([4]; GPI 1046 10 mg/kg s.c. 1 hour prior to ischemia and 10 mg/kg/day for next four days, 28 days after ischemia): noticeable protection of a large proportion of the vulnerable ganglion cell population; also recorded: protects retinal ganglion cells against degeneration
- density of degenerating myelin figures ([4]; same retinal ischemia cases, 28 days after 1 hour ischemic episode): dramatically decreased
- degeneration of optic nerve axons ([4]; same retinal ischemia cases, 28 days after 1 hour ischemic episode, toluidine blue staining): protected the majority of optic nerve axons from degeneration; also recorded: prevents degeneration of optic nerve axons and myelin
- axons of protected neurons in the proximal stump (RT97) ([5]; 90 days after transection): preserved the axons of virtually all protected neurons
- ganglion cell population spared ([5]; sacrificed 90 days after transection): 25%
- latency, hot plate and tail flick [6]: improvement in latency
- spatial memory performance (swim distance), retention testing [7]: no longer any statistically significant difference
- loss of neurons in the INL and GCL ([8]; 28 day GPI 1046 treatment beginning 8 weeks after onset of diabetes, compared to streptozotocin/vehicle): protects neurons in the inner nuclear layer (INL) and ganglion cell layer (GCL) from degeneration
- neovascularization in the retina (PR, ONL, OPL, INL) ([8]; 28 day GPI 1046 treatment beginning 8 weeks after onset of streptozotocin induced diabetes): reduced neovascularization; also recorded: decreases the extent of neovascularization
- quantitative recovery in myelin density ([9]; GPI 1046 for the first 14 days after transection, proximal stump): 1.60
- myelin levels, distal stump ([9]; GPI 1046 through the first 28 days after transection): ~99 % of normal levels
- Proximal optic nerve myelin basic protein Density ([9]; ONT/14 days GPI 1046): did not alter the pattern of myelin degeneration
- increased ON axon density ([9]; ONT/14 days GPI 1046): 1.5 X
- Distal optic nerve stump shrinkage ([9]; ONT/14 days GPI 1046): did not protect against shrinkage of the distal stump
- Distal optic nerve myelin basic protein Density ([9]; ONT/14 days GPI 1046): slightly increase the density of myelin
- Proximal optic nerve myelin basic protein Density ([9]; ONT/28 days GPI 1046): prevents myelin degeneration in the proximal stump
- increased ON axon density ([9]; ONT/28 days GPI 1046): 5.0 X
- Distal optic nerve stump shrinkage ([9]; ONT/28 days GPI 1046): prevented cross sectional shrinkage of the distal stump
- Distal optic nerve myelin basic protein Density ([9]; ONT/28 days GPI 1046): prevents myelin degeneration in the distal stump

Molecule: CCC(C)(C)C(=O)C(=O)N1CCS[C@@H]1C(=O)OCCCc1cccnc1 [F]
- RT 97 RGC axon density 14 days after ON transection [1]: 55.1% ± 5.9% SEM
